Here are results for twelve molecules from paper PMC11940309, “Endocrine-Disrupting Activities of Flavones on Steroid Receptors: Structural Requirements and Synthesis of Novel Flavone with Improved Estrogenic Activity” (Biomedicines, 2025).

Read-outs that look alike come from different tables or passages of the source.

The target in assay [1] is T1, progesterone receptor (PR) (Homo sapiens, UniProt P06401).
T1 sequence (P06401 679-933 limits assumed): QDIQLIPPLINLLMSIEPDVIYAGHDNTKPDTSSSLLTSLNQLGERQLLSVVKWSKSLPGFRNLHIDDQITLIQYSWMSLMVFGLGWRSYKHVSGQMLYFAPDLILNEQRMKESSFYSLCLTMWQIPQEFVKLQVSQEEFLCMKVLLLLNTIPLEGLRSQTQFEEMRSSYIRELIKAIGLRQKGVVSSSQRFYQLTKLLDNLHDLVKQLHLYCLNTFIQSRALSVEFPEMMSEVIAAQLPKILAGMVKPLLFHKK
As to the kind of experiment: PR-mediated induction of transcription by R5020 in T47D K5pLuc cells (luciferase reporter and endogenous alkaline phosphatase). Format: cell-based. Conditions: for inhibition at 4 µM / inhibition at 8 µM: T47D; for inhibition at 4 µM / inhibition at 8 µM / % Inhibition of PR Induction: R5020 1.0 nM. From the text: (§1) The engineered T47D breast cancer cell lines employed for the assessment of flavonoid activity on glucocorticoid receptor (GR) and progesterone receptor (PR) signaling permitted the facile quantitation transcription of both an endogenous gene and a stably integrated reporter gene. […] The T47D K5pLuc cell line responds to progestins via induction of a stably integrated cytokeratin 5-luciferase reporter gene. […] For assessment of the effect of the test compounds on androgen receptor (AR) signaling, we used the HeLa13 cell line engineered to stably express human AR and a PSA-luciferase reporter gene containing a 4× multimerized PSA upstream enhancer ARE1 linked to the E4 TATA box and luciferase gene.
Experiments testing the effect of flavonoids on progesterone receptor-mediated transcription employed T47D K5pluc cells. The protocol was the same as that for T47D (A1-2) cells except the medium was Dulbecco’s Modified Eagle’s Medium supplemented with 10% FBS, insulin (10 nM), puromycin 200 ng/mL, nonessential amino acids, penicillin (100 U/mL), and streptomycin (100 μg/mL). When treated with hormone, the synthetic progestin, R5020, was used at 1.0 nM. Hormone treatment was for 20 h at which time cells were harvested for assay of alkaline phosphatase and luciferase.
(§2) For all cell lines, cell harvesting and the luminescence assay for alkaline phosphatase and/or luciferase were performed as previously described in detail. Each condition was performed in quadruplicate. […] Percent inhibition is 100 minus the percent induction.
(In general: Reporter assays use an easily measured gene product as a stand-in for the process of interest.)

Assay [2] concerns the target T2, glucocorticoid receptor (GR) (Rattus norvegicus, UniProt P06536).
T2 construct: host or cells: T47D (A1-2)
T2 sequence (P06536 1-795): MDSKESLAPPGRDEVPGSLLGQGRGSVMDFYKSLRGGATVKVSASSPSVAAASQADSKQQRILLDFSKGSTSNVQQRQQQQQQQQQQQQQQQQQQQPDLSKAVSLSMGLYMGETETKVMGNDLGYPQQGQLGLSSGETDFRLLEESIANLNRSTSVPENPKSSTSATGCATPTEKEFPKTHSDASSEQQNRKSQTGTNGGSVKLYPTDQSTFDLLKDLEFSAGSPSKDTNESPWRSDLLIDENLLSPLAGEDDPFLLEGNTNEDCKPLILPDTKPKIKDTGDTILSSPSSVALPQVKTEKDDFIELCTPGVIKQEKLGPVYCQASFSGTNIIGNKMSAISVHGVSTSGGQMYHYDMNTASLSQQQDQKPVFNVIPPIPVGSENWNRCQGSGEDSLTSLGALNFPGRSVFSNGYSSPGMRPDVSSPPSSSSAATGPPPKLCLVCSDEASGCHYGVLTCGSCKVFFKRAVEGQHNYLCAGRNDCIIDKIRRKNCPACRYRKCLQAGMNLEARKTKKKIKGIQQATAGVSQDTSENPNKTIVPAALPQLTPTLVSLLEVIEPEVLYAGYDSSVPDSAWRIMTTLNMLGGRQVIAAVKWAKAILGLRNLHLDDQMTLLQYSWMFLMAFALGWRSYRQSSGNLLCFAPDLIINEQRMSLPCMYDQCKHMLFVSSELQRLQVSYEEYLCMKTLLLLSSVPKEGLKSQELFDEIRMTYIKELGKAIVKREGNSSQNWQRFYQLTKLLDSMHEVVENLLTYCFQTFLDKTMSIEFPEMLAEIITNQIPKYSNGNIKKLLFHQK
As to the kind of experiment: GR-mediated induction of transcription by dexamethasone in T47D (A1-2) cells (luciferase reporter and endogenous alkaline phosphatase). It counts as cell-based, human. The following applies: dexamethasone 1.0 nM; for inhibition at 4 µM / inhibition at 8 µM: T47D.
Excerpt: as §1
For assessment of the effect of flavones on glucocorticoid receptors, T47D (A1-2) cells were maintained in Minimal Essential Medium, 10% Fetal Bovine Serum (FBS), 0.2 mg/mL G418, penicillin (100 U/mL), and streptomycin (100 μg/mL). For experiments, medium was removed, and cultures rinsed with Phosphate-Buffered Saline (PBS) + 1.0 mM EDTA (PBSE), detached with trypsin, pelleted, and resuspended in medium to a concentration of 500,000 cells/mL. Aliquots of cell suspension, 100 microliters/well, were transferred into a 96-well, white, flat-bottomed plate and allowed to attach for 24 h. The following day, each well was treated with a 50 microliter aliquot of a test compound diluted in medium. Controls received medium containing DMSO diluted in the same way. For hormone treatment, dexamethasone was diluted in medium and added as 50 microliter aliquots so that the final volume in each well was 200 microliters. The final concentration of dexamethasone was 1.0 nM. Controls received medium without hormone. Hormone treatment was for 20 h at which time cells were harvested for assay of alkaline phosphatase and luciferase.
as §2

[3] abbreviates: 4 µM, AP (alkaline phosphatase).
The mark [4] stands for this setting: 8 µM, AP (alkaline phosphatase).
[5] abbreviates: 4 µM, AP (alkaline phosphatase), read-out: % Inhibition of GR Induction.
Setting [6] is: 4 µM, LUC (luciferase), read-out: % Inhibition of GR Induction.
Where [7] appears, read: 8 µM, AP (alkaline phosphatase), read-out: % Inhibition of GR Induction.
Setting [8] is: 8 µM, LUC (luciferase), read-out: % Inhibition of GR Induction.
Where [9] appears, read: read-out: % Inhibition of GR Induction, 4 µM, AP (alkaline phosphatase).
Setting [10] is: read-out: % Inhibition of GR Induction, 4 µM, LUC (luciferase).
[11] abbreviates: read-out: % Inhibition of GR Induction, 8 µM, AP (alkaline phosphatase).
Setting [12] is: read-out: % Inhibition of GR Induction, 8 µM, LUC (luciferase).

For the molecule `O=c1cc(-c2ccc(O)c(O)c2)oc2ccccc12` [3′,4′-dihydroxyflavone], the inhibition (commonly the relative decrease from the control value, in per cent) at 4 µM in assay [1] (setting [3]) was 8%; in assay [1] (4 µM, LUC (luciferase)), -64%; in assay [2] (setting [5]) it was -15%; in assay [2] (setting [6]), -2%. Besides, the inhibition at 8 µM is 27% in assay [1] (setting [4]); -14% in assay [1] (8 µM, LUC (luciferase)); 38% in assay [2] (setting [7]); -6% in assay [2] (setting [8]).
On to `O=c1cc(-c2ccc(O)cc2)oc2ccccc12` [4′-hydroxyflavone], for which the inhibition at 4 µM was 31% in assay [1] (setting [3]); -62% in assay [1] (4 µM, LUC (luciferase)); 49% in assay [2] (setting [5]); -43% in assay [2] (setting [6]). Besides, the inhibition at 8 µM was 49% in assay [1] (setting [4]); -81% in assay [1] (8 µM, LUC (luciferase)); 49% in assay [2] (setting [7]); -49% in assay [2] (setting [8]).
As to `O=c1cc(-c2ccc(O)c(O)c2)oc2cccc(O)c12` [5,3′,4′-trihydroxyflavone], the inhibition at 4 µM in assay [1] (setting [3]) is 46%; in assay [1] (4 µM, LUC (luciferase)), -7%; in assay [2] (setting [9]), 27%; in assay [2] (setting [10]) it was -16%. Also, the inhibition at 8 µM in assay [1] (setting [4]) was 65%; in assay [1] (8 µM, LUC (luciferase)), 55%; in assay [2] (setting [11]) it was 40%; in assay [2] (setting [12]), -24%.
As to `O=c1cc(-c2ccc(O)cc2)oc2cccc(O)c12` [5,4′-dihydroxyflavone], the inhibition at 4 µM in assay [1] (setting [3]) is 23%; in assay [1] (4 µM, LUC (luciferase)) it was -12%; in assay [2] (setting [5]), 34%; in assay [2] (setting [6]), 13%. The inhibition at 8 µM in assay [1] (setting [4]) stood at 74%; in assay [1] (8 µM, LUC (luciferase)), 80%; in assay [2] (setting [7]), 33%; in assay [2] (setting [8]), 13%.
As for `O=c1cc(-c2cc(O)c(O)c(O)c2)oc2cc(O)cc(O)c12` [5,7,3′4′,5′-pentahydroxyflavone], the “% Inhibition of PR Induction” value is 12% in assay [1] (setting [3]); −97% in assay [1] (4 µM, LUC (luciferase)); 45% in assay [1] (setting [4]); −19% in assay [1] (8 µM, LUC (luciferase)). In addition, the “% Inhibition of GR Induction” value in assay [2] (setting [3]) was −19%; in assay [2] (4 µM, LUC (luciferase)) it was 5%; in assay [2] (setting [4]), 46%; in assay [2] (8 µM, LUC (luciferase)), −25%.
Take `O=C1CC(c2ccc(O)c(O)c2)Oc2cc(O)cc(O)c21` (stereo not shown) [5,7,3′,4′-tetrahydroxyflavanone]: the inhibition at 4 µM stood at 8% in assay [1] (setting [3]); 3% in assay [1] (4 µM, LUC (luciferase)); 4% in assay [2] (setting [9]); 5% in assay [2] (setting [10]). In addition, the inhibition at 8 µM is 40% in assay [1] (setting [4]); 23% in assay [1] (8 µM, LUC (luciferase)); -4% in assay [2] (setting [11]); 18% in assay [2] (setting [12]).
As for `O=c1cc(-c2ccc(O)c(O)c2)oc2cc(O)cc(O)c12` [5,7,3′,4′-tetrahydroxyflavone], the entries for the “inhibition of PR-mediated gene expression of both reporter genes” value in assay [1] (4.0 micromolar) and in assay [1] (8.0 micromolar) were “at least 70%” and not below 90%, respectively. For the same molecule, the IC50 – broadly, the concentration that inhibits the measured activity by half – in assay [1] (R5020, alkaline phosphatase and luciferase, read-out: IC50, inhibition of PR-mediated induction of gene expression) was in the range of 1000 to 2000 nM. Also, the inhibition at 4 µM in assay [1] (setting [3]) is 82%; in assay [1] (4 µM, LUC (luciferase)), 76%; in assay [2] (setting [5]) it was 33%; in assay [2] (setting [6]), -8%. Moreover, the inhibition at 8 µM in assay [1] (setting [4]) is 95%; in assay [1] (8 µM, LUC (luciferase)), 95%; in assay [2] (setting [7]) it was 55%; in assay [2] (setting [8]), -3%.
`COc1ccc([C@@H]2CC(=O)c3c(O)cc(O)cc3O2)cc1O` [5,7,3′-triOH, 4′methoxyflavanone]: the inhibition at 4 µM in assay [1] (setting [3]) is 8%; in assay [1] (4 µM, LUC (luciferase)) it was -6%; in assay [2] (setting [5]), 1%. The inhibition at 8 µM came to 28% in assay [1] (setting [4]); 16% in assay [1] (8 µM, LUC (luciferase)); 51% in assay [2] (setting [7]); 15% in assay [2] (setting [8]).
Turning to `O=C1CC(c2ccc(O)cc2)Oc2cc(O)cc(O)c21` (stereo not shown) [5,7,4′-trihydroxyflavanone], the inhibition at 4 µM was determined as 43% in assay [1] (setting [3]); 52% in assay [1] (4 µM, LUC (luciferase)); 8% in assay [2] (setting [5]); 15% in assay [2] (setting [6]). Besides, the inhibition at 8 µM in assay [1] (setting [4]) is 90%; in assay [1] (8 µM, LUC (luciferase)), 98%; in assay [2] (setting [7]), 7%; in assay [2] (setting [8]), 19%.
`O=c1c(-c2ccc(O)cc2)coc2cc(O)cc(O)c12` [5,7,4′-trihydroxyisoflavone]: the inhibition at 4 µM was 49% in assay [1] (setting [3]); -96% in assay [1] (4 µM, LUC (luciferase)); 22% in assay [2] (setting [5]); -7% in assay [2] (setting [6]). The inhibition at 8 µM in assay [1] (setting [4]) turned out to be 32%.
Turning to `O=c1cc(-c2ccccc2)oc2cc(O)cc(O)c12` [5,7-dihydroxyflavone], the results for the “inhibition of PR-mediated gene expression of both reporter genes” value in assay [1] (4.0 micromolar) and in assay [1] (8.0 micromolar) were “at least 70%” and not below 90%, respectively. Further, the inhibition at 4 µM in assay [1] (setting [3]) came out at 78%; in assay [1] (4 µM, LUC (luciferase)), 71%; in assay [2] (setting [5]), 22%; in assay [2] (setting [6]), 0%. The inhibition at 8 µM is 89% in assay [1] (setting [4]); 90% in assay [1] (8 µM, LUC (luciferase)); 38% in assay [2] (setting [7]); -6% in assay [2] (setting [8]).
For `O=c1cc(-c2ccc(O)cc2)oc2ccc(O)cc12` [6,4′-dihydroxyflavone], the inhibition at 4 µM in assay [1] (setting [3]) was 39%; in assay [1] (4 µM, LUC (luciferase)) it was -147%; in assay [2] (setting [5]), 26%; in assay [2] (setting [6]), -44%. Further, the inhibition at 8 µM is 37% in assay [1] (setting [4]); -103% in assay [1] (8 µM, LUC (luciferase)); 39% in assay [2] (setting [7]); -82% in assay [2] (setting [8]).
